Assay results reported in patent US7166634B2, “Bis-indole pyrroles useful as antimicrobials agents” (Nereus Pharmaceuticals, Inc., priority 2004, dated 2007).
Values after ≈ are worked out from the molar mass of the structure shown. Values joined by “and” are separate entries in the source; they are usually repeats but may differ in a detail not shown here. Identical values can stand only once.

Legend:
Test in all cases: MIC, broth microdilution (NCCLS M7-A5)
Type in all cases: cell-based
[1] = system: S. epidermidis - ATCC 700578; design: Staph Epi 700578 MIC: unit not given here; conditions: for Staph Epi 700578 MIC: Table 4, averages of 2 experiments, * single experiment, both values given when differing >2 fold; for MIC: S. epidermidis - ATCC 700578, Table 3
Method: (§1) Minimum inhibitory concentrations (MICs) are determined according to the National Committee for Clinical Laboratory Standards (NCCLS) susceptibility test guideline M7-A5 (Ferraro, M. 2001 Methods for Dilution Antimicrobial Susceptibility Tests for Bacteria that Grow Aerobically; Approved Standard (NCCLS). National Committee for Clinical Laboratory Standards (NCCLS), Villanova) to quantify the antimicrobial activity of the compounds of the present embodiment against various pathogenic bacteria. Susceptibility testing is performed by broth microdilution in accordance with National Committee for Clinical Laboratory Standards (NCCLS) guidelines. This procedure entails combining the test compounds with a standardized number of cells, incubating at the temperature and amount of time appropriate for each particular organism, and visually scoring the concentration at which no growth was apparent in the test wells. The panel includes both drug sensitive and drug resistant isolates of both gram-positive and gram-negative bacteria, including: S. aureus (both MSSA and MRSA), S. pneumoniae (wild type and penicillin-resistant), vancomycin-sensitive E. faecalis, vancomycin-resistant E. faecium, E. coli, H. influenzae and P. aeruginosa.
(§2) Susceptibility testing was performed by broth microdilution in accordance with National Committee for Clinical Laboratory Standards (NCCLS) guidelines. Antimicrobial data for compounds of Formulae II, III, IV, VI, VII, VIII, IX, XII, XIII, XIV, XV′, XV, XVI, XVII, XVIII, XXI′, XXII, XXIII, XXIV, and XXV are shown in Tables 3, 4 and 5.

[2] = system: S. epidermidis - ATCC 700582; design: Staph Epi 700582 MIC: unit not given here; conditions: for Staph Epi 700582 MIC: Table 4, averages of 2 experiments, * single experiment, both values given when differing >2 fold; for MIC: S. epidermidis - ATCC 700582, Table 3
Method: as §1, §2

[3] = system: E. coli - imp; conditions: for E. coli imp MIC: Table 5; for MIC: E. coli - imp, Table 3
Method: as §1, §2

[4] = system: E. faecium - Van^r (VRE 700221); conditions: for VRE 700221 MIC: Table 4, averages of 2 experiments, * single experiment, both values given when differing >2 fold; for MIC: E. faecium - Van^r, Table 3
Method: as §1, §2

[5] = system: H. influenzae - ATCC 49247; conditions: for H. inf. 49247: Table 4 (MIC), averages of 2 experiments, * single experiment, both values given when differing >2 fold; for MIC: H. influenzae - ATCC 49247, Table 3
Method: as §1, §2

[6] = system: H. influenzae - ATCC 49766; conditions: for H. inf. 49766: Table 4 (MIC), averages of 2 experiments, * single experiment, both values given when differing >2 fold; for MIC: H. influenzae - ATCC 49766, Table 3
Method: as §1, §2

[7] = system: S. aureus - MRSA (43300); conditions: for MRSA 43300 MIC: Table 4, averages of 2 experiments, * single experiment, both values given when differing >2 fold, in µg/mL; for MIC: S. aureus - MRSA, Table 3
Method: as §1, §2

[8] = system: S. aureus - MSSA (29213); conditions: for MSSA 29213 MIC: Table 4, averages of 2 experiments, * single experiment, both values given when differing >2 fold, in µg/mL; for MIC: S. aureus - MSSA, Table 3
Method: as §1, §2

[9] = system: S. pneumoniae - penicillin resistant (51915); conditions: for S. pneumo 51915 Pen R MIC: Table 4, averages of 2 experiments, * single experiment, both values given when differing >2 fold; for MIC: S. pneumoniae - penicillin resistant, Table 3
Method: as §1, §2

[10] = system: S. pneumoniae - penicillin sensitive (49619); conditions: for S. pneumo 49619 Pen. S MIC: Table 4, averages of 2 experiments, * single experiment, both values given when differing >2 fold; for MIC: S. pneumoniae - penicillin sensitive, Table 3
Method: as §1, §2

[11] = system: E. faecalis - Van^s (VSE 29212); design: VSE 29212 MIC: unit not given here; conditions: for VSE 29212 MIC: Table 4, averages of 2 experiments, * single experiment, both values given when differing >2 fold; for MIC: E. faecalis - Van^s, Table 3
Method: as §1, §2

[12] = system: E. coli - ATCC 25922; conditions: Table 3
Method: as §1, §2

Row | Structure (SMILES) | Staph Epi 700578 MIC [1] | Staph Epi 700582 MIC [2] | E. coli imp MIC [3] | VRE 700221 MIC ([4]; in µg/mL) | H. inf. 49247 [5] | H. inf. 49766 [6] | MRSA 43300 MIC [7] | MSSA 29213 MIC [8] | S. pneumo 51915 Pen R MIC ([9]; in µg/mL) | S. pneumo 49619 Pen. S MIC ([10]; in µg/mL) | VSE 29212 MIC [11] | further results
1 | O=C(O)c1[nH]cc(-c2c[nH]c3ccc(Cl)cc23)c1-c1c[nH]c2ccc(Cl)cc12 [VII] | 16* | 16* | >32 µg/mL | >32* | >32* | >32* | 16* | 12* | >32* | >32* | >32* | –
2 | COC(=O)c1[nH]cc(-c2c[nH]c3cc(Cl)c(Cl)cc23)c1-c1c[nH]c2ccc(Cl)cc12 [II] | – | – | – | – | – | – | – | – | – | – | – | MIC [1]: 1 µg/mL (≈ 2.18 µM); MIC [2]: 1 µg/mL (≈ 2.18 µM); MIC [12]: >32 µg/mL; MIC [3]: 6 µg/mL (≈ 13.1 µM); MIC [4]: 2 µg/mL (≈ 4.36 µM); MIC [5]: 2 µg/mL (≈ 4.36 µM); MIC [6]: 6 µg/mL (≈ 13.1 µM); MIC [7]: 1 µg/mL (≈ 2.18 µM); MIC [8]: 0.8 µg/mL (≈ 1.74 µM); MIC [9]: 8 µg/mL (≈ 17.4 µM); MIC [10]: 8 µg/mL (≈ 17.4 µM); MIC [11]: 1.5 µg/mL (≈ 3.27 µM)
3 | COC(=O)c1[nH]cc(-c2c[nH]c3cc(Cl)c(Cl)cc23)c1-c1c[nH]c2ncccc12 [XIV] | 8* | 8* | – | 6 | >32* | >32* | 6 | 6 | 24* | 32* | 12 | –
4 | COC(=O)c1[nH]cc(-c2c[nH]c3cc(F)c(Cl)cc23)c1-c1c[nH]c2ccc(Cl)cc12 [XVII] | 1* | 1* | 8 µg/mL | 4* | >32* | 16* | 1* | 1* | 24* | 16* | 4* | –
5 | COC(=O)c1[nH]cc(-c2c[nH]c3ccc(Br)cc23)c1-c1c[nH]c2ccc(Br)cc12 [XVI] | 2.5 | 2.5 | >32, 32 ug/mL | 6 | >32 | 16 and > 32 | 2.5 | 1.4 | 24 | 20 | 5 | –
6 | COC(=O)c1[nH]c(C(=O)OC)c(-c2c[nH]c3ccccc23)c1-c1c[nH]c2ccccc12 [IX] | 16 | 16 | >32 µg/mL | >32 | >32 | >32 | >32 | >32 | >32 | – | >32 | S. pneumo 49619 Pen. S MIC [10]: 32, >32
7 | Clc1cc2[nH]cc(-c3c[nH]cc3-c3c[nH]c4cc(Cl)c(Cl)cc34)c2cc1Cl [IV] | – | – | – | – | – | – | – | – | – | – | – | MIC [1]: 1 µg/mL (≈ 2.3 µM); MIC [2]: 1 µg/mL (≈ 2.3 µM); MIC [12]: >32 µg/mL; MIC [3]: 6 µg/mL (≈ 13.8 µM); MIC [4]: 2 µg/mL (≈ 4.6 µM); MIC [5]: 4 µg/mL (≈ 9.19 µM); MIC [6]: 6 µg/mL (≈ 13.8 µM); MIC [7]: 1.5 µg/mL (≈ 3.45 µM); MIC [8]: 1.1 µg/mL (≈ 2.53 µM); MIC [9]: 20 µg/mL (≈ 46 µM); MIC [10]: 20 µg/mL (≈ 46 µM); MIC [11]: 2.5 µg/mL (≈ 5.75 µM)
8 | COC(=O)c1[nH]c(C(=O)OC)c(-c2c[nH]c3ccc(Cl)cc23)c1-c1c[nH]c2ccc(F)cc12 [XX] | 8 | 8 | >32 µg/mL | >32 | – | >32 | 5 | 4 | – | 32 | 24 | S. pneumo 51915 Pen R MIC [9]: >32, 32
9 | COC(=O)c1[nH]c(C(=O)OC)c(-c2c[nH]c3cc(F)ccc23)c1-c1c[nH]c2ccccc12 [XXV] | 8* | 8* | >32 µg/mL | >32* | 8* | 16* | 8* | 4* | >32* | 32* | >32* | –
10 | COC(=O)c1[nH]c(C(=O)OC)c(-c2c[nH]c3ccc(F)cc23)c1-c1c[nH]c2ccc(F)cc12 [XVIII] | 16* | 16* | >32 µg/mL | >32* | >32* | >32* | 12* | 8* | >32* | >32* | >32* | –
11 | COC(=O)c1[nH]c(C(=O)OC)c(-c2c[nH]c3ncccc23)c1-c1c[nH]c2ccc(Cl)cc12 [XIII] | 8* | 8* | >32 µg/mL | 32* | >32* | >32* | 4* | 3* | >32* | >32* | 16* | –
12 | O=C(O)c1[nH]c(C(=O)O)c(-c2c[nH]c3ccc(Cl)cc23)c1-c1c[nH]c2ccc(Cl)cc12 [VIII] | >16 | >16 | >16 µg/mL | >16 | >16 | >16 | >16 | >16 | >16 | >16 | >16 | –
13 | COC(=O)c1[nH]c(C(=O)OC)c(-c2c[nH]c3ccc(F)cc23)c1-c1c[nH]c2ccccc12 [XXIII] | >32* | 16* | >32 µg/mL | >32* | >32* | >32* | >32* | 16* | >32* | >32* | >32* | –
14 | O=C(O)c1[nH]cc(-c2c[nH]c3cc(Cl)c(Cl)cc23)c1-c1c[nH]c2ccc(Cl)cc12 [XII] | 3 | 6 | 20 µg/mL | 8 | 8 | 10 | 6 | 4 | >32 | >32 | 8 | –
15 | COC(=O)c1[nH]c(C(=O)OC)c(-c2c[nH]c3cc(F)c(Cl)cc23)c1-c1c[nH]c2ccc(Cl)cc12 [XXII] | 2.5 | 2 | >32 µg/mL | – | – | 4 | 1.5 | 1.25 | 32 | 32 | 6 | VRE 700221 MIC [4]: 16 and > 32
16 | COC(=O)c1[nH]cc(-c2c[nH]c3cc(Cl)c(F)cc23)c1-c1c[nH]c2ccc(F)cc12 [XXIV] | 2* | 2* | 8 µg/mL | 8* | 16* | 16* | 1.5* | 1* | 16* | 23* | 4* | –
